Consider six compounds from US20240067685A1, “HIDDEN ANTIBIOTICS IN THE HUMAN PROTEOME” (priority 2022, published 2024).

As usually defined, the share remaining is the share of the starting amount still present when the sample was taken. High values mean greater stability, low ones a greater loss.

≈ marks a conversion by molar mass, not a printed value. Where “and” joins values, the source holds several entries; their conditions need not be identical. Identical values can stand only once. Non-standard residues stand in square brackets, D forms with d. Residues, ends and D or L forms follow the SMILES beside them. No end group written: not given here.

The subject of series [1] is P. aeruginosa wild-type PAO1. The procedure: (§1) Antimicrobial activity. The antimicrobial activity of ApoB-derived encrypted peptides was assessed against a panel of skin pathogens, such as S. epidermidis ATCC 35984, S. aureus ATCC 12600, A. baumannii ATCC 17878, K. pneumoniae ATCC 700603, S. aureus MRSA (WK7-2), E. faecalis ATCC 29212 and P. aeruginosa PAO1 by using the broth microdilution method. ^20 Bacteria were grown to mid-logarithmic phase in MHB at 37° C. […] Following incubation over-night, each sample was diluted, plated on TSA, and incubated at 37° C. for 24 h to count the number of colonies. All experiments were performed in three independent replicates.

For a further series, the system named is S. aureus MRSA (WKZ-2). Here is the method:
as §1

A short description of the next series: in vitro. Conditions: 25% fetal bovine serum. Here is the method:
To determine its proteolytic stability, it was assessed whether (ri)-r(P)ApoBS^Pro was less susceptible to serum proteases compared to its parent peptide r(P)ApoBS^Pro.
Stability assay. The resistance to enzymatic degradation assay was performed according to the method described by Powell et al. ^72 Briefly, peptides at 2 mg mL^−1 were exposed to a solution of 25% fetal bovine serum in water. Aliquots were collected after 0.5, 1, 2, and 4 h and 10 μL of trifluoroacetic acid was added to them while the samples were on ice for 10 min. The enzymatic degradation of peptides was followed by reverse-phase high performance liquid chromatography coupled to mass spectrometry (RP-HPLC/ESI-MS). The percentage of remaining peptide was calculated by integrating the area under the curve related to the peptide at time point zero.
where AUCX is the area under the curve of the peak related to the peptide after t h (t=0.5, 1, 2, and 4 h), and AUC0 is the area under the curve of the peak related to the peptide at the beginning of the experiment. Three independent experimental replicates were performed, as previously described. ^73

The subject of series [2] is S. aureus ATCC 12600. The series is described as follows: microbe, parasite or virus in culture. The note with it: for MIC: ATCC 12600; for MIC values: conventional antimicrobial agents, Staphylococcus aureus ATCC 12600. Here is the method:
as §1

In series [3] the test system is S. epidermidis ATCC 35984. The series is described as follows: microbe, parasite or virus in culture. The note with it: for MIC: ATCC 35984; for MIC values: conventional antimicrobial agents, Staphylococcus epidermidis ATCC 35984. Here is the method:
as §1

In series [4] the test system is S. aureus ATCC 12600. The series is described as follows: Bacterial resistance development assay (30 days). It counts as cell-based, Staphylococcus aureus. Here is the method:
(§2) Experiments were performed to assess whether prolonged exposure to ApoB-derived encrypted peptides led to the evolution of resistant phenotypes, since classical AMPs are known to be less likely to trigger bacterial resistance than standard antibiotics. ^41 The Gram-negative bacterial pathogen A. baumannii ATCC 17878, and the Gram-positives S. epidermidis ATCC 35984, and S. aureus ATCC 12600 were longitudinally treated with r(P)ApoBL^Pro, r(P)ApoBL^Ala, and r(P)ApoBS^Pro. Control sample groups were treated with the antibiotics colistin, gentamicin, and mupirocin, selected based on their distinct mechanisms of action, the former destabilizing the bacterial extracellular membrane and the latter acting on intracellular targets. […] A. baumannii resistance towards colistin increased by up to 8-fold, whereas S. epidermidis resistance to gentamicin and mupirocin increased by up to 16- and 8-fold, respectively (FIG. 3C). […] For example, both colistin-resistant A. baumannii ATCC 17878 and gentamicin-resistant S. epidermidis ATCC 35984 presented wrinkled borders (FIG. 2E) as opposed to the smooth colonies' characteristic of their morphology at the beginning of the experiment (FIG. 2E).
(§3) Bacterial resistance development assay. S. epidermidis ATCC 35984, S. aureus ATCC 12600 and A. baumannii ATCC 17878 bacterial strains were exposed to colistin, gentamicin, mupirocin, r(P)ApoBL^Pro, r(P)ApoBL^Ala or r(P)ApoBS^Pro. Once, we detected the MIC values for each peptide or antibiotic against the bacterial strains tested, we transferred bacterial cells that survived the exposure at a sub-inhibitory (MIC/2) concentration, and they were re-grown and re-exposed to the respective peptide or antibiotic. ^20 The treatment was repeated for 30 days. Strains that developed resistance to antibiotics presented higher MICs at subsequent passages and the cells from the last passage were isolated and stored for scanning electron microscopy analyses.

In series [5] the test system is S. epidermidis ATCC 35984. Nature of the series: Bacterial resistance development assay (30 days). It counts as cell-based, Staphylococcus epidermidis. The note with it: for change in MIC (resistance development): S. epidermidis, 30 days of treatment; for MIC: Staphylococcus epidermidis. Here is the method:
as §2, §3

Series [6] relates to A. baumannii ATCC 17878. The series is described as follows: Bacterial resistance development assay (30 days). It counts as cell-based, Acinetobacter baumannii. The note with it: for MIC: Acinetobacter baumannii; for change in MIC (resistance development): 30 days of treatment. The procedure: as §2, §3
In series [7] the test system is A. baumannii ATCC 17878. The series is described as follows: microbe, parasite or virus in culture. Conditions: for MIC values: conventional antimicrobial agents, Acinetobacter baumannii ATCC 17878; for MIC: ATCC 17878. The procedure:
as §1

In series [8] the test system is K. pneumoniae ATCC 700603. The series is described as follows: microbe, parasite or virus in culture. The note with it: for MIC values: conventional antimicrobial agents, Klebsiella pneumoniae ATCC 700603; for MIC: ATCC 700603. Here is the method:
as §1

The test system of another series is E. faecalis ATCC 29212. Here is the method: as §1

`CC[C@@H](C)[C@@H](NC(=O)[C@H]1CCCN1C(=O)[C@@H](CO)NC(=O)[C@H]1CCCN1C(=O)[C@@H](CCCCN)NC(=O)[C@@H](CCCNC(=N)N)NC(=O)[C@H]1CCCN1C(=O)[C@H](NC(=O)[C@@H](CCCCN)NC(=O)[C@@H](CC(C)C)NC(=O)[C@@H](CC(C)C)NC(=O)[C@@H](CO)NC(=O)CN)C(C)C)C(=O)N[C@@H](C(=O)N[C@H](Cc1ccccc1)C(=O)N[C@H](CCCCN)C(=O)N[C@H](CC(C)C)C(=O)N[C@H](CCCCN)C(=O)NCC(=O)N1CCC[C@@H]1C(=O)N[C@H](CCCCN)C(=O)N[C@H](CC(C)C)C(=O)N[C@H](C)C(=O)N[C@@H](C(=O)N[C@H](Cc1c[nH]cn1)C(=O)N1CCC[C@@H]1C(=O)O)C(C)C)[C@H](C)CC` [(ri)-r(P)ApoBS^Pro] (H-G[dS][dL][dL][dK][dV][dP][dR][dK][dP][dS][dP][dI][dI][dF][dK][dL][dK]G[dP][dK][dL][dA][dV][dH][dP]-OH; N-terminus and C-terminus assumed): the MIC stood at 10 µM (≈ 28.2 µg/mL) in series [1], 10 µM (≈ 28.2 µg/mL) with S. aureus MRSA (WKZ-2), 20 µM (≈ 56.4 µg/mL) in the series on S. aureus ATCC 12600 [2] and 10 µM (≈ 28.2 µg/mL) in [3]. This compound displayed an amount remaining at 4 h, 2 mg mL^-1 in “in vitro” (bovine) of around 50%.
On to `C/C(=C\C(=O)OCCCCCCCCC(=O)O)C[C@@H]1OC[C@H](C[C@@H]2O[C@H]2[C@@H](C)[C@H](C)O)[C@@H](O)[C@H]1O` [mupirocin], for which the MIC before increase in the series on S. aureus ATCC 12600 [4] (before the increase) is 0.024 μg mL^−1 and 0.048 μmol L^−1. The MIC after increase in the series with S. aureus ATCC 12600 [4] (between days 15 and 21 of treatment) was 0.19 μg mL^−1 and 0.38 μmol L^−1. In addition, the “change in MIC (resistance development)” value with S. aureus ATCC 12600 [4] (prolonged treatment) is recorded as 8 fold; in series [5], “up to 8 fold”. For the same compound, the MIC was 0.012 µg/mL and 0.024 µM in series [5] (ATCC35984, read-out: MIC after prolonged treatment); 0.0015 µg/mL and 0.003 µM in series [5] (ATCC35984, read-out: MIC at start of resistance study); 400 µg/mL and 800 µM in the series on A. baumannii ATCC 17878 [6] (ATCC17878, read-out: MIC after 30 days of treatment); 100 µg/mL and 200 µM in the series on A. baumannii ATCC 17878 [6] (ATCC17878, read-out: MIC at start of resistance study).
Colistin: the entries for the “change in MIC (resistance development)” value (in series [5]; in the series with A. baumannii ATCC 17878 [6] (A. baumannii)) were “No significant resistance development” and “up to 8 fold”, respectively. For the same compound, the “MIC after 30 days of treatment” value with A. baumannii ATCC 17878 [6] (A. baumannii) came out at 25 µg/mL; in the series on A. baumannii ATCC 17878 [6] (A. baumannii, listed as colistin), 21.6 µM. The “MIC at start of resistance study” value against A. baumannii ATCC 17878 [6] (A. baumannii, before prolonged treatment) is 3.12 μg mL^−1 and 2.7 μmol L^−1. The MIC values against S. aureus ATCC 12600 [2] was determined as 12.5 µg/mL; against A. baumannii ATCC 17878 [7], 3.12 µg/mL; in series [3] it was 3.12 µg/mL; in series [8] it was 3.12 µg/mL.
For Gentamicin, the “change in MIC (resistance development)” value in [5] is recorded as “up to 16 fold”; with A. baumannii ATCC 17878 [6] (A. baumannii), “did not change”. The MIC values was 1 µg/mL with S. aureus ATCC 12600 [2], 0.25 µg/mL against A. baumannii ATCC 17878 [7], 2 µg/mL in [3] and 0.5 µg/mL in [8].
With “PHVALKAGKLKFIIPSPKRPVKLLSGGNTLHLVSTTKT [r(P)ApoBL^Ala]”, the MIC with E. faecalis ATCC 29212 was 10 µM; in series [1] it was 2.5 µM; against S. aureus MRSA (WKZ-2) it was 10 µM; in the series with S. aureus ATCC 12600 [2] it was 20 µM; against A. baumannii ATCC 17878 [7] it was 2.5 µM; in [3], 10 µM. Besides, the MIC in [8] worked out at 5 µM. Also, the “stability in the presence of serum” value in “in vitro” was “degraded within minutes”.
Regarding “PHVALKPGKLKFIIPSPKRPVKLLSGGNTLHLVSTTKT [r(P)ApoBL^Pro]”, the MIC against E. faecalis ATCC 29212 was 20 µM; in [1], 5 µM; in the series with S. aureus MRSA (WKZ-2), 20 µM; with S. aureus ATCC 12600 [2] it was 20 µM; against A. baumannii ATCC 17878 [7] it was 5 µM; in [3] it was 10 µM. Besides, the MIC in series [8] amounted to 10 µM. In addition, in the series “in vitro”, the “stability in the presence of serum” value is on record as “degraded within minutes”.
